Test results: ChEMBL document CHEMBL1201862, “PubChem BioAssay data set” (2004)
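These data come from cells grown in 96-well plates and exposed to compound for 48 hours at five concentrations. Abbreviation: GI50, concentration required for 50% inhibition of growth.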 The source made the active and inactive calls. Rule as the data show it: active = GI50 up to about 1.1 µM and inactive = higher.

How the values were obtained:
Test in all cases: NCI tumour cell line growth inhibition, 48 h
NCI/ADR-RES = tested on: NCI/ADR-RES
HCT-15 = tested on: HCT-15
CAKI-1 = tested on: CAKI-1
K562 = tested on: K562
SNB-75 = tested on: SNB-75
PC-3 = tested on: PC-3
Hs-578T = tested on: Hs-578T
DU-145 = tested on: DU-145
SK-MEL-28 = tested on: SK-MEL-28
HCT-116 = tested on: HCT-116
786-0 = tested on: 786-0
UO-31 = tested on: UO-31
OVCAR-4 = tested on: OVCAR-4
MDA-MB-435 = tested on: MDA-MB-435
SF-539 = tested on: SF-539
Malme-3M = tested on: Malme-3M
SF-295 = tested on: SF-295
M14 = tested on: M14
NCI-H226 = tested on: NCI-H226
MDA-MB-231 = tested on: MDA-MB-231
SNB-19 = tested on: SNB-19
IGROV-1 = tested on: IGROV-1
NCI-H460 = tested on: NCI-H460
SF-268 = tested on: SF-268
HOP-62 = tested on: HOP-62
ACHN = tested on: ACHN
SK-MEL-2 = tested on: SK-MEL-2
NCI-H522 = tested on: NCI-H522
HCC 2998 = tested on: HCC 2998
MOLT-4 = tested on: MOLT-4
SN12C = tested on: SN12C
KM12 = tested on: KM12
HL-60 = tested on: HL-60
MCF7 = tested on: MCF7
UACC-257 = tested on: UACC-257
OVCAR-3 = tested on: OVCAR-3
SW-620 = tested on: SW-620
HOP-92 = tested on: HOP-92
SK-OV-3 = tested on: SK-OV-3
RXF 393 = tested on: RXF 393
SR = tested on: SR
OVCAR-8 = tested on: OVCAR-8
MDA-N = tested on: MDA-N
RPMI-8226 = tested on: RPMI-8226
NCI-H23 = tested on: NCI-H23
COLO 205 = tested on: COLO 205
A549 = tested on: A549
U-251 = tested on: U-251
EKVX = tested on: EKVX
CCRF-CEM = tested on: CCRF-CEM
A498 = tested on: A498
BT-549 = tested on: BT-549
TK-10 = tested on: TK-10
UACC-62 = tested on: UACC-62
SK-MEL-5 = tested on: SK-MEL-5
T47D = tested on: T47D
LOX IMVI = tested on: LOX IMVI
HT-29 = tested on: HT-29
OVCAR-5 = tested on: OVCAR-5

For `CN1CCc2ccccc2C1Cc1ccccc1NC(=O)c1sc2ccccc2c1Cl` (stereo unspecified), the GI50 (NCI/ADR-RES) was > 100 µM (inactive), the GI50 (HCT-15) was greater than 100 µM and the GI50 (CAKI-1) was > 100 µM (inactive). The GI50 (K562) was > 100 µM (inactive), the GI50 (SNB-75) was > 100 µM (inactive) and the GI50 (PC-3) was > 100 µM (inactive). For the same molecule, the GI50 (Hs-578T) was > 100 µM (inactive), the GI50 (DU-145) was > 100 µM (inactive) and the GI50 (SK-MEL-28) was > 100 µM (inactive). For the same molecule, the GI50 (HCT-116) was > 100 µM (inactive), the GI50 (786-0) was > 100 µM (inactive) and the GI50 (UO-31) was > 100 µM (inactive). The GI50 (OVCAR-4) was > 100 µM (inactive), the GI50 (MDA-MB-435) was > 100 µM (inactive) and the GI50 (SF-539) was > 100 µM (inactive). For the same molecule, the GI50 (Malme-3M) was > 100 µM (inactive), the GI50 (SF-295) was > 100 µM (inactive) and the GI50 (M14) was > 100 µM (inactive). For the same molecule, the GI50 (NCI-H226) was > 100 µM (inactive), the GI50 (MDA-MB-231) was > 100 µM (inactive) and the GI50 (SNB-19) was > 100 µM (inactive). The GI50 (IGROV-1) was > 100 µM (inactive), the GI50 (NCI-H460) was > 100 µM (inactive) and the GI50 (SF-268) was > 100 µM (inactive). For the same molecule, the GI50 (HOP-62) was > 100 µM (inactive), the GI50 (ACHN) was > 100 µM (inactive) and the GI50 (SK-MEL-2) was > 100 µM (inactive). For the same molecule, the GI50 (NCI-H522) was > 100 µM (inactive), the GI50 (HCC 2998) was > 100 µM (inactive) and the GI50 (MOLT-4) was > 100 µM (inactive). For the same molecule, the GI50 (SN12C) was > 100 µM (inactive), the GI50 (KM12) was > 100 µM (inactive) and the GI50 (HL-60) was 42.3 µM (inactive). For the same molecule, the GI50 (MCF7) was > 100 µM (inactive), the GI50 (UACC-257) was > 100 µM (inactive) and the GI50 (OVCAR-3) was > 100 µM (inactive). For the same molecule, the GI50 (SW-620) was > 100 µM (inactive), the GI50 (HOP-92) was > 100 µM (inactive) and the GI50 (SK-OV-3) was > 100 µM (inactive). The GI50 (RXF 393) was > 100 µM (inactive), the GI50 (SR) was > 100 µM (inactive) and the GI50 (OVCAR-8) was > 100 µM (inactive). For the same molecule, the GI50 (MDA-N) was > 100 µM (inactive), the GI50 (RPMI-8226) was > 100 µM (inactive) and the GI50 (NCI-H23) was > 100 µM (inactive). The GI50 (COLO 205) was > 100 µM (inactive), the GI50 (A549) was > 100 µM (inactive) and the GI50 (U-251) was > 100 µM (inactive). The GI50 (EKVX) was > 100 µM (inactive), the GI50 (CCRF-CEM) was 50.9 µM (inactive) and the GI50 (A498) was > 100 µM (inactive). For the same molecule, the GI50 (BT-549) was > 100 µM (inactive), the GI50 (TK-10) was > 100 µM (inactive) and the GI50 (UACC-62) was > 100 µM (inactive). For the same molecule, the GI50 (SK-MEL-5) was > 100 µM (inactive) and the GI50 (T47D) was > 100 µM (inactive).

For `Cc1c(/C=N/NC(=S)Nc2ccc(Cl)cc2)c(=O)n(-c2ccccc2)n1C`, the GI50 (NCI/ADR-RES) was 17.3 µM (inactive), the GI50 (HCT-15) was 17.9 µM and the GI50 (CAKI-1) was 9.75 µM (inactive). For the same molecule, the GI50 (K562) was > 100 µM (inactive), the GI50 (LOX IMVI) was 32.6 µM (inactive) and the GI50 (SNB-75) was 15.9 µM (inactive). The GI50 (PC-3) was > 52.1 µM (inactive), the GI50 (HT-29) was > 100 µM (inactive) and the GI50 (Hs-578T) was 18.3 µM (inactive). The GI50 (DU-145) was 42.7 µM (inactive), the GI50 (SK-MEL-28) was > 100 µM (inactive) and the GI50 (HCT-116) was 24.9 µM (inactive). For the same molecule, the GI50 (786-0) was 16.3 µM (inactive), the GI50 (UO-31) was 32.1 µM (inactive) and the GI50 (OVCAR-4) was 24.5 µM (inactive). For the same molecule, the GI50 (MDA-MB-435) was > 100 µM (inactive), the GI50 (SF-539) was 15 µM (inactive) and the GI50 (Malme-3M) was > 34.7 µM (inactive). For the same molecule, the GI50 (SF-295) was 18.4 µM (inactive), the GI50 (M14) was > 62.8 µM (inactive) and the GI50 (NCI-H226) was 18.7 µM (inactive). For the same molecule, the GI50 (MDA-MB-231) was 0.637 µM (active), the GI50 (SNB-19) was 27.9 µM (inactive) and the GI50 (IGROV-1) was 16 µM (inactive). For the same molecule, the GI50 (OVCAR-5) was > 56.5 µM (inactive), the GI50 (NCI-H460) was 25.4 µM (inactive) and the GI50 (SF-268) was 15.8 µM (inactive). For the same molecule, the GI50 (HOP-62) was 14.3 µM (inactive), the GI50 (ACHN) was 16.1 µM (inactive) and the GI50 (SK-MEL-2) was 21.6 µM (inactive). The GI50 (NCI-H522) was 7.08 µM (inactive), the GI50 (HCC 2998) was > 100 µM (inactive) and the GI50 (MOLT-4) was > 60.8 µM (inactive). For the same molecule, the GI50 (SN12C) was > 82.6 µM (inactive), the GI50 (KM12) was > 47.6 µM (inactive) and the GI50 (HL-60) was > 100 µM (inactive). For the same molecule, the GI50 (MCF7) was 19.8 µM (inactive), the GI50 (UACC-257) was > 83.6 µM (inactive) and the GI50 (OVCAR-3) was > 42 µM (inactive). The GI50 (SW-620) was > 78.5 µM (inactive), the GI50 (SK-OV-3) was 18.2 µM (inactive) and the GI50 (RXF 393) was 14.8 µM (inactive). For the same molecule, the GI50 (SR) was 4.93 µM (inactive), the GI50 (OVCAR-8) was 24.9 µM (inactive) and the GI50 (MDA-N) was > 100 µM (inactive). For the same molecule, the GI50 (RPMI-8226) was 39.1 µM (inactive), the GI50 (NCI-H23) was 24.8 µM (inactive) and the GI50 (COLO 205) was > 71.1 µM (inactive). For the same molecule, the GI50 (A549) was 33.7 µM (inactive), the GI50 (U-251) was 15.5 µM (inactive) and the GI50 (EKVX) was 22.6 µM (inactive). The GI50 (CCRF-CEM) was > 75.2 µM (inactive), the GI50 (A498) was 22.5 µM (inactive) and the GI50 (BT-549) was 0.0258 µM (active). The GI50 (TK-10) was 23.6 µM (inactive), the GI50 (UACC-62) was > 48.5 µM (inactive) and the GI50 (SK-MEL-5) was 20.1 µM (inactive). For the same molecule, the GI50 (T47D) was 46.6 µM (inactive).

With `OC1(c2ccc3ccccc3c2)c2ccc3ccccc3c2C2=NCCN21` (stereo unspecified) the GI50 (NCI/ADR-RES) was 37.1 µM (inactive), the GI50 (HCT-15) was greater than 100 µM and the GI50 (CAKI-1) was > 100 µM (inactive). The GI50 (K562) was 45 µM (inactive), the GI50 (LOX IMVI) was 91.8 µM (inactive) and the GI50 (SNB-75) was 24.9 µM (inactive). The GI50 (PC-3) was > 100 µM (inactive), the GI50 (HT-29) was > 100 µM (inactive) and the GI50 (Hs-578T) was 24.5 µM (inactive). For the same molecule, the GI50 (DU-145) was > 100 µM (inactive), the GI50 (SK-MEL-28) was > 100 µM (inactive) and the GI50 (HCT-116) was 34.6 µM (inactive). For the same molecule, the GI50 (786-0) was 24.8 µM (inactive), the GI50 (UO-31) was 40.9 µM (inactive) and the GI50 (OVCAR-4) was 22.3 µM (inactive). For the same molecule, the GI50 (MDA-MB-435) was > 100 µM (inactive), the GI50 (SF-539) was 19.5 µM (inactive) and the GI50 (Malme-3M) was > 100 µM (inactive). For the same molecule, the GI50 (SF-295) was 41.4 µM (inactive), the GI50 (M14) was > 100 µM (inactive) and the GI50 (MDA-MB-231) was 76.4 µM (inactive). The GI50 (SNB-19) was 66.8 µM (inactive), the GI50 (IGROV-1) was > 100 µM (inactive) and the GI50 (OVCAR-5) was > 100 µM (inactive). For the same molecule, the GI50 (NCI-H460) was 23.6 µM (inactive), the GI50 (SF-268) was 54.3 µM (inactive) and the GI50 (HOP-62) was 18.5 µM (inactive). For the same molecule, the GI50 (ACHN) was > 100 µM (inactive), the GI50 (SK-MEL-2) was > 100 µM (inactive) and the GI50 (HCC 2998) was 74.1 µM (inactive). The GI50 (MOLT-4) was > 100 µM (inactive), the GI50 (SN12C) was > 100 µM (inactive) and the GI50 (KM12) was > 100 µM (inactive). For the same molecule, the GI50 (HL-60) was > 100 µM (inactive), the GI50 (MCF7) was 48.2 µM (inactive) and the GI50 (UACC-257) was > 100 µM (inactive). For the same molecule, the GI50 (OVCAR-3) was > 100 µM (inactive), the GI50 (SW-620) was 94.8 µM (inactive) and the GI50 (HOP-92) was > 100 µM (inactive). For the same molecule, the GI50 (SK-OV-3) was > 100 µM (inactive), the GI50 (RXF 393) was 29.4 µM (inactive) and the GI50 (SR) was 36.8 µM (inactive). The GI50 (OVCAR-8) was 23.3 µM (inactive), the GI50 (MDA-N) was > 100 µM (inactive) and the GI50 (RPMI-8226) was > 100 µM (inactive). The GI50 (NCI-H23) was > 100 µM (inactive), the GI50 (COLO 205) was > 100 µM (inactive) and the GI50 (A549) was 46.5 µM (inactive). For the same molecule, the GI50 (U-251) was 45.7 µM (inactive), the GI50 (EKVX) was > 100 µM (inactive) and the GI50 (CCRF-CEM) was > 100 µM (inactive). The GI50 (A498) was > 100 µM (inactive), the GI50 (BT-549) was > 100 µM (inactive) and the GI50 (TK-10) was 28.3 µM (inactive). The GI50 (UACC-62) was > 100 µM (inactive), the GI50 (SK-MEL-5) was > 100 µM (inactive) and the GI50 (T47D) was > 100 µM (inactive).
